According to patent US20250325256A1, “LIPID PATCH” (SENSACH AB, priority 2021, published 2025):
Where two headings read alike, the source gives them in different places.

What was measured:
[1] = Reverse iontophoretic extraction into GMO cubic phase receptor matrix; format: in vitro ADME, pig; conditions: for Cumulative amount Cubic at anode / Cumulative amount Cubic at cathode: in the cubic phase, 6 h, HEPES pH 7.4; for Cumulative amount Total at anode / Cumulative amount Total at cathode: sum of receptor solution after 6 hours and cubic phase
Protocol: Another objective of the present intention was to investigate the potency of a liquid crystalline cubic phase formed by GMO and water to serve as a matrix for iontophoresis. In order to keep experimental conditions as similar as possible to the previously described experiments, the same horizontal side-by-side cells were used. A fully swollen cubic phase (Pn3m space group) was added into a custom-made sample holder ensuring the formulation was in contact with the skin. In order to prevent contact between the cubic phase and the electrodes, 2 mL of HEPES buffer (pH 7.4, 60 mM NaCl) was added to each receptor compartment. Sampling was performed by withdrawing 1 ml of receptor solution and replacing it with a 1 mL of empty buffer every hour for 6 hours. After the last sampling, the experiment was terminated, and the cubic phase was collected for further analysis. […] It is important to point out that partitioning of Trp and Kyn into cubic bilayer was not taken into account during the calculation of the extracted amounts of respective endogenous substance. The amounts were determined based on the volume of the receptor matrix (100 μL).
The samples for reverse iontophoretic extraction experiments consisting of a liquid crystalline cubic phase were prepared by weighing 0.1 g of glycerol monooleate (GMO) in a 1.8 mL glass vials. GMO was then melted at 45° C. by immersing the vials in the water bath and centrifuged at 1000 g for 5 minutes. The vials were then placed in the freezer (−20° C.) for 30 minutes in order for GMO to crystalize. After crystallization vials were taken out of the freezer and 0.5 g of Milli-Q water was added to each vial, ensuring the excess of added water. […] Prior to use, each vial was examined between cross polarizers for any sign of anisotropy, which would imply that sample had not yet reached equilibrium. […]

[2] = for partitioning into the cubic lipid bilayer compared to kynurenine: fully swollen GMO cubic phase; for Kcub/w / log Kcub/w: fully swollen Pn3m cubic phase (GMO/water) vs water; for bilayer/water partitioning, Kcub/w / bilayer/water partitioning, log Kcub/w: fully swollen Pn3m cubic phase (GMO/water), calculated
Protocol: Four concentrations of Trp and Kyn in a range 0.125 mM to 1 mM, corresponding to lipid:Trp(Kyn) ratio in the range 7200:1-900:1, were prepared in Milli-Q water in order to investigate the effect of concertation on the partitioning. The fully swollen cubic phases (˜0.25 g) were prepared by mixing the appropriate amount of GMO with an excess of Milli-Q water (1:1 weight ratio) in a 1.7 mL glass vials and left to equilibrate for 7 days. When samples were equilibrated (typically within 2 days a glass-clear and non-floating cubic phase was formed), each vial was checked between cross polarizers to ensure that no birefringence could be observed. The excess of water was then removed and 500 μL of solution with different concentrations of Trp/Kyn (molar ratio 1:1) were added to each vial. Final samples were allowed to equilibrate with respect to Trp and Kyn partitioning between the lipid bilayer and the aqueous phase. First sampling was performed after one week of equilibration by withdrawing 50 μL of the aqueous phase. Second sampling was performed in identical manner after 2 weeks of equilibration to investigate the time aspect on the partitioning. All samples collected during the partition study were diluted to a final volume 500 μL with Milli-Q water and filtered with a 0.2 μm syringe filters (13 mm PTFE membrane, VWR International, USA) prior to the HPLC-UV analysis. All partition experiments were performed in triplicates.
The lipid bilayer/water partition coefficient, Kbl/w, may be defined as
where [X] is the concentration of an endogenous substance of interest (e.g., Trp and Kyn) in the bilayer and in water. While concertation of a substance in the aqueous phase can easily be determined by a suitable analytical procedure (e.g., HPLC, LC-MS etc.), determination of the concertation in the bilayer requires two assumptions. […] The second assumption is that the concentration of an endogenous substance in the water channels of the cubic phase is the same as in the water bulk phase, which is based on the equilibrium between chemical potentials of endogenous substances in water channels and in the bulk phase. Thus, the partition coefficient may be calculated by rewriting the Eq. 2 as follows
where Vw is the volume of a water solution containing endogenous substance X added to the cubic phase, [X]0w is the initial concentration of an endogenous substance, [X]w is the concentration of endogenous substance in the water phase after equilibration, Vbl is the volume of GMO, Vcube is the volume of water that was added to GMO to form a cubic phase.
The quantification of Trp and Kyn was performed by HPLC-UV system (Agilent 1100 Series, Germany). The chromatographic separation of Trp and Kyn was carried out on 250 mm×4.6 mm Kromasil C18 column with particle size of 5 μm (AkzoNobel, Bellefonte, USA). Endogenous substances were separated by gradient elution using mobile phase A consisting of 10 mM NaH2PO4 (pH 2.8) and mobile phase B consisting of 100% MeOH at 0.9 mL/min flow rate and 40° C. column temperature. […] The total run time was 17 minutes and injection volume was set to 20 μL. Detection of Trp and Kyn was performed at their UV absorbance maxima, at 280 nm and 360 nm, respectively. Stock solutions of 10 mM of Trp and Kyn for calibration curve were prepared in Milli-Q water and kept in the freezer (−20° C.) for no longer than one day after preparation. Calibration standards for calibration curve were analyzed in the range 0.78 μM to 100 μM (R^2>0.999) the same day as the experimental samples.

[3] = Reverse iontophoretic extraction of Trp and Kyn in side-by-side cells; format: in vitro ADME, pig; conditions: for Flux at anode / Flux at cathode / Cumulative amount at anode / Cumulative amount at cathode: mean ± SEM
Protocol: Due to the small molecular weight, Trp and Kyn are good candidates for non-invasive monitoring as their passive permeation across the skin membrane is not restricted by the SC's ‘500 Dalton’ rule. Moreover, because of their polar nature (zwitterionic at neutral pH), these compounds are perfect candidates for extraction by reverse iontophoresis. The non-invasive reverse iontophoretic sampling of Trp and Kyn was conducted in vitro using side-by-side cells consisting of two receptor compartments (anodal & cathodal) and a subdermal compartment. Reverse iontophoretic and passive extraction experiments were performed using identical experimental conditions. […] The reverse iontophoretic extraction was performed by application of a constant current 0.3 mA ([…]) for 6 hours in total. Sampling was performed every hour by withdrawing 1 mL of receptor solution and the amount of permeated compound was determined by HPLC-UV. […] The reservoir consists primarily of amino acids and amino acid derivatives originating from proteolysis of filaggrin.
Pig skin, purchased from a local abattoir, was gently cleaned post-sacrifice under cold running water. The skin from abdomen or from the inside of the outer ear was used as in vitro skin model. The hair was trimmed and the skin was dermatomed to a final thickness of 750 μm (Dermatome, Integra LifeSciences, Plainsboro, NJ, USA). Skin samples were then wrapped individually in Parafilm™ and kept at −20° C. for not more than three months until use. Prior to extraction experiments, skin was cut into 4 cm^2 membranes while still being frozen. Prepared skin membranes were then left at ambient environment for 30 minutes to thaw and obtain room temperature. The integrity of each skin membrane was visually inspected against the light in order to ensure that there were no visible damages (holes). Hairs were then further trimmed with scissors and skin was gently rinsed under cold running water.
The Ag/AgCl electrode couple were preferred over platinum because it avoids the sharp decrease in the pH of the solution as their electrochemistry occurs at voltages considerably lower than those required for electrolysis of water. The electrodes were prepared by making a small loop at one of the ends of the silver wire and dipping it into the molten silver chloride in order to coat the loop with AgCl. After cooling, anodal electrodes were prepared by conditioning AgCl coated loops overnight against a platinum wire anode (0.2 mm in diameter, Sigma), at 0.3 mA with 50 mM NaCl as an electrolyte solution resulting in the formation of a layer of silver on the outer surface of the electrodes.
where zp, up, cp are the charge, mobility and concentration of the permeant, ID is the current density (=I/A), F is the Faraday's constant and summation includes all the species in solution that can carry the charge, v is the solvent velocity. Electromigration is a direct cause of current application, which leads to a formation of an electric field across the skin.

[4] = pH 7.4, after 4 hours of iontophoresis
[5] = pH 7.4, after the first hour of current application
[6] = receptor pH 4.0, after 6 hours of iontophoresis
[7] = receptor pH 4.0, donor pH 7.4, after 6 h
[8] = receptor pH 4.0, iontophoretic vs passive cumulative amount after 6 hours
[9] = receptor pH 7.4, after 6 hours of iontophoresis
[10] = receptor pH 7.4, donor pH 7.4, after 6 h
[11] = receptor pH 7.4, iontophoretic vs passive cumulative amount after 6 hours
[12] = receptor pH 9.0, after 6 hours of iontophoresis
[13] = receptor pH 9.0, donor pH 7.4, after 6 h
[14] = receptor pH 9.0, iontophoretic vs passive cumulative amount after 6 hours

N[C@@H](Cc1c[nH]c2ccccc12)C(=O)O [Trp, L-tryptophan]
Ratio Trp/Kyn at cathode cubic ([1]; from amounts in the cubic phase): 0.94 ± 0.04 | Ratio Trp/Kyn at cathode total ([1]; from the total cumulative amount): 0.86 ± 0.05 | Cumulative amount Cubic at anode [1]: 0.68 ± 0.05 nmol/cm^2 | Cumulative amount Cubic at cathode [1]: 5.29 ± 0.48 nmol/cm^2 | Cumulative amount Total at anode [1]: 0.68 ± 0.05 nmol/cm^2 | Cumulative amount Total at cathode [1]: 6.57 ± 1.00 nmol/cm^2 | partitioning into the cubic lipid bilayer compared to kynurenine [2]: twice as high | partitioning into the cubic lipid bilayer compared to kynurenine ([2]; listed as tryptophan): approximately twice as high | Kcub/w [2]: 2.2 | log Kcub/w [2]: 0.3 | bilayer/water partitioning, Kcub/w [2]: 3.0 | bilayer/water partitioning, log Kcub/w [2]: 0.5 | cumulative amount extracted towards the cathode (QC) [3, 4]: 3.59±0.43 nmol/cm^2 | cumulative amount extracted to the anode (QA) ([3]; pH 7.4, after 5 hours of current application): 1.03±0.08 nmol/cm^2 | cumulative amount at cathode, times higher than at anode ([3]; pH 7.4, after 6 hours): ~6 | cumulative amount extracted to the anode (QA) [3, 5]: 0.28±0.06 nmol/cm^2 | cumulative amount extracted towards the cathode (QC) [3, 5]: 0.49±0.04 nmol/cm^2 | Flux at anode [3, 6]: 0.35 ± 0.12 nmol/(h · cm^2) | Flux at cathode [3, 6]: 1.03 ± 0.21 nmol/(h · cm^2) | Cumulative amount at anode [3, 7]: 2.01 ± 0.65 nmol/cm^2 | Cumulative amount at cathode [3, 7]: 4.39 ± 0.87 nmol/cm^2 | Ratio Trp/Kyn (after 6 h) ([3]; receptor pH 4.0, from cathode fluxes): 1.01 | Ratio Trp/Kyn (after 6 h) ([3]; receptor pH 4.0, from cumulative amounts at the cathode): 1.35 ± 0.24 | ER Anode [3, 8]: 11 | ER Cathode [3, 8]: 24 | Flux at anode [3, 9]: 0.24 ± 0.07 nmol/(h · cm^2) | Flux at cathode [3, 9]: 2.02 ± 0.19 nmol/(h · cm^2) | Cumulative amount at anode [3, 10]: 1.27±0.13 nmol/cm^2 | Cumulative amount at cathode [3, 10]: 7.36±0.75 nmol/cm^2 | Ratio Trp/Kyn (after 6 h) ([3]; receptor pH 7.4, from cathode fluxes): 1.07 | Ratio Trp/Kyn (after 6 h) ([3]; receptor pH 7.4, from cumulative amounts at the cathode): 1.25 ± 0.03 | ER Anode [3, 11]: 2 | ER Cathode [3, 11]: ~12 | Flux at anode [3, 12]: 0.69 ± 0.23 nmol/(h · cm^2) | Flux at cathode [3, 12]: 2.32 ± 0.15 nmol/(h · cm^2) | Cumulative amount at anode [3, 13]: 1.62 ± 0.26 nmol/cm^2 | Cumulative amount at cathode [3, 13]: 8.15 ± 0.59 nmol/cm^2 | Ratio Trp/Kyn (after 6 h) ([3]; receptor pH 9.0, from cathode fluxes): 1.17 | Ratio Trp/Kyn (after 6 h) ([3]; receptor pH 9.0, from cumulative amounts at the cathode): 1.29 ± 0.03 | ER Anode [3, 14]: 2 | ER Cathode [3, 14]: 11

Nc1ccccc1C(=O)C[C@H](N)C(=O)O [Kyn, L-kynurenine]
Cumulative amount Cubic at anode [1]: 0.28 ± 0.28 nmol/cm^2 | Cumulative amount Cubic at cathode [1]: 5.62 ± 0.45 nmol/cm^2 | Cumulative amount Total at anode [1]: 0.28 ± 0.28 nmol/cm^2 | Cumulative amount Total at cathode [1]: 7.53 ± 0.83 nmol/cm^2 | Kcub/w [2]: 1.3 | log Kcub/w [2]: 0.1 | bilayer/water partitioning, Kcub/w [2]: 1.5 | bilayer/water partitioning, log Kcub/w [2]: 0.2 | cumulative amount extracted towards the cathode (QC) [3, 4]: 2.50±0.44 nmol/cm^2 | Flux at anode [3, 6]: 0.18 ± 0.09 nmol/(h · cm^2) | Flux at cathode [3, 6]: 0.93 ± 0.23 nmol/(h · cm^2) | Cumulative amount at anode [3, 7]: 0.91 ± 0.44 nmol/cm^2 | Cumulative amount at cathode [3, 7]: 3.76 ± 0.89 nmol/cm^2 | Flux at anode [3, 9]: 0.11 ± 0.08 nmol/(h · cm^2) | Flux at cathode [3, 9]: 1.88 ± 0.18 nmol/(h · cm^2) | Cumulative amount at anode [3, 10]: 0.25 ± 0.17 nmol/cm^2 | Cumulative amount at cathode [3, 10]: 5.97 ± 0.73 nmol/cm^2 | Flux at anode [3, 12]: 0.52 ± 0.23 nmol/(h · cm^2) | Flux at cathode [3, 12]: 1.99 ± 0.16 nmol/(h · cm^2) | Cumulative amount at anode [3, 13]: 0.64 ± 0.27 nmol/cm^2 | Cumulative amount at cathode [3, 13]: 6.38 ± 0.62 nmol/cm^2
